# Measured values from patent US20260070911A1, “INHIBITORS OF TAM RECEPTORS” (National Health Research Institutes, priority 2022, published 2026).
# How the values were obtained:
# Format in all cases: biochemical
# [1] = target: T1, AXL (Homo sapiens, UniProt P30530); experiment: AXL enzymatic assay (ADP-Glo); settings: purified kinase, ATP 50 μM, read-out: AXL Enzymatic Inhibition (%)
# T1 sequence (P30530 26-894): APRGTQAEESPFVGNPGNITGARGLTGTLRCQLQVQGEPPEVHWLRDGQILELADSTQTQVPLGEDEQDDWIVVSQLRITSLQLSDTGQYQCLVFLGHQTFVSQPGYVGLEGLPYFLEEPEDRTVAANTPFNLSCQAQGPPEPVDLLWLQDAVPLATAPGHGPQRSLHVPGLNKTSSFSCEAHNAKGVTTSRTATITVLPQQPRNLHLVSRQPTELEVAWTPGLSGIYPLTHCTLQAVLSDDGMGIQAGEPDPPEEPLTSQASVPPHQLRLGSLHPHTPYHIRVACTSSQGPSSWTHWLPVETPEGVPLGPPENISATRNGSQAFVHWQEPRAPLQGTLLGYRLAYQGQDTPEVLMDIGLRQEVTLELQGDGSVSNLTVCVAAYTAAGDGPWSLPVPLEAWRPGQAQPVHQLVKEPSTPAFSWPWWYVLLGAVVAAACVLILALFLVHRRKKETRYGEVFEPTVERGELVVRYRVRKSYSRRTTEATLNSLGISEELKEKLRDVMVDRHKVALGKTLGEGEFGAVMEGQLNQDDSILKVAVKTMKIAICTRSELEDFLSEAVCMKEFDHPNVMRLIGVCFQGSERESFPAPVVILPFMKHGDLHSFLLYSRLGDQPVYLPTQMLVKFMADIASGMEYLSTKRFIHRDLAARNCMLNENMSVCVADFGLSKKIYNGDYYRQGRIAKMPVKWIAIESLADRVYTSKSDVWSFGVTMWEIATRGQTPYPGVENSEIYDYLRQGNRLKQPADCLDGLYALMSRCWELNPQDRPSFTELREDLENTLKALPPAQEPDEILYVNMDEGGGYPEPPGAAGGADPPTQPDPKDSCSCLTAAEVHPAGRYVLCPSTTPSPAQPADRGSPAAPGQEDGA
# [2] = target: T2, MERTK (Homo sapiens, UniProt Q12866); experiment: MERTK enzymatic assay (Kinase Glo); settings: purified kinase, ATP 12 μM, read-out: MER Enzymatic Inhibition (%)
# T2 sequence (Q12866 21-999): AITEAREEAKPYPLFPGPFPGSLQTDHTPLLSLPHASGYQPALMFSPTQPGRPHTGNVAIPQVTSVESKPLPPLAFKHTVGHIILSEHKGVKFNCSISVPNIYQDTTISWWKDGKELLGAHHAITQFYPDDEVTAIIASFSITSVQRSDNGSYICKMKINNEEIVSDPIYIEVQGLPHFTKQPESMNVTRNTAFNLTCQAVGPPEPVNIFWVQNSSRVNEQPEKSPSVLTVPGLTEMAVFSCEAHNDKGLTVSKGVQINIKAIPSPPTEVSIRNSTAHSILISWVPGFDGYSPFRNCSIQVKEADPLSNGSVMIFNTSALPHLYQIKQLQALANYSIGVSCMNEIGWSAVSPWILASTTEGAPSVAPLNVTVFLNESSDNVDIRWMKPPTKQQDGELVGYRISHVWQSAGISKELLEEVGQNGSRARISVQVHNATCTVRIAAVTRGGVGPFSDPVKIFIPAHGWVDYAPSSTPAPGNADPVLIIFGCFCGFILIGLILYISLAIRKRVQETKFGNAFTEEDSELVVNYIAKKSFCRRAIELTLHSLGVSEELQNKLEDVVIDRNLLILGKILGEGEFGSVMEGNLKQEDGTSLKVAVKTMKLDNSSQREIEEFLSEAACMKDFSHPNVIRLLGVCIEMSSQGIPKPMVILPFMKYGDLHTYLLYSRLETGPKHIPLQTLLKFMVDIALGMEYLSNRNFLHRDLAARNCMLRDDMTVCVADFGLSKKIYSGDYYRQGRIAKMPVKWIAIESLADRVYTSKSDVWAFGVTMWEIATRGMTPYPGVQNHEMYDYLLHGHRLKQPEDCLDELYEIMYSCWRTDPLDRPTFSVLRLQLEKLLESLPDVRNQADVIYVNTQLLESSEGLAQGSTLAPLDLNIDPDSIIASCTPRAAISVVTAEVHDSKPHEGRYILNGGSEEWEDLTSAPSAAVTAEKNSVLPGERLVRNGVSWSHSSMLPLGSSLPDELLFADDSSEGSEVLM
# [3] = tested on: MER/AXL; experiment: Dual MER/AXL inhibition (enzymatic); settings: class for both MER and AXL
SMILES,IC50 [1] [nM],IC50 [2] [nM],IC50 [3] [nM]
O=C(Nc1ccc(Oc2ncnc3[nH]cc(C#Cc4ccccc4)c23)cc1)c1cccn(-c2ccc(F)cc2)c1=O [Compound 18],< 20,100 to 50000,100 to 50000
CC(=O)Nc1cccc(-c2c[nH]c3ncnc(Oc4ccc(NC(=O)c5cn(C)n(-c6ccc(F)cc6)c5=O)cc4)c23)c1 [Compound 125],100 to 50000,100 to 50000,100 to 50000
O=C(Nc1ccc(Oc2ncnc3ccsc23)cc1)c1cccn(-c2ccc(F)cc2)c1=O [Compound 41],20 to 100,100 to 50000,100 to 50000
Cn1cc(-c2oc3ncnc(Oc4ccc(NC(=O)c5cn(C)n(-c6ccc(F)cc6)c5=O)cc4)c3c2-c2cccc(CN3CCOCC3)c2)cn1 [Compound 127],< 20,100 to 50000,100 to 50000
Cn1cc(-c2oc3ncnc(Oc4ccc(NC(=O)c5cccn(-c6ccc(F)cc6)c5=O)cc4)c3c2-c2ccc(N3CCNCC3)cc2)cn1 [Compound 32],< 20,< 20,< 20
O=C(Nc1ccc(Oc2ncnc3[nH]cc(-c4cccnc4)c23)cc1)c1cccn(-c2ccc(F)cc2)c1=O [Compound 16],< 20,100 to 50000,100 to 50000
CN1CCN(c2cccc(-c3c(-c4cnn(C)c4)oc4ncnc(Oc5ccc(NC(=O)c6cccn(-c7ccc(F)cc7)c6=O)cc5)c34)c2)CC1 [Compound 38],< 20,20 to 100,20 to 100
CN1CCN(c2ccc(-c3c(-c4cnn(C)c4)oc4ncnc(Oc5ccc(NC(=O)c6cccn(-c7ccc(F)cc7)c6=O)cc5)c34)cc2)CC1 [Compound 34],< 20,< 20,< 20
CN(C)Cc1ccccc1-c1c(-c2cnn(C)c2)oc2ncnc(Oc3ccc(NC(=O)c4cccn(-c5ccc(F)cc5)c4=O)cc3)c12 [Compound 91],100 to 50000,100 to 50000,100 to 50000
CN(C)c1cccc(-c2c[nH]c3ncnc(Oc4ccc(NC(=O)c5cccn(-c6ccc(F)cc6)c5=O)cc4)c23)c1 [Compound 21],100 to 50000,100 to 50000,100 to 50000
CCNc1cccc(-c2c(-c3cnn(C)c3)oc3ncnc(Oc4ccc(NC(=O)c5cccn(-c6ccc(F)cc6)c5=O)cc4)c23)c1 [Compound 177],100 to 50000,100 to 50000,100 to 50000
CC(=O)Nc1cccc(-c2c(-c3cnn(C)c3)oc3ncnc(Oc4ccc(NC(=O)c5cc6c(n(-c7ccc(F)cc7)c5=O)CCCC6=O)cc4)c23)c1 [Compound 69],< 20,100 to 50000,100 to 50000
Cn1cc(-c2oc3ncnc(Oc4ccc(NC(=O)c5cccn(C6CCCCC6)c5=O)cc4)c3c2-c2cccc(N)c2)cn1 [Compound 83],100 to 50000,100 to 50000,100 to 50000
O=C(Nc1ccc(Oc2nc(Cl)nc3[nH]ccc23)cc1)c1cccn(-c2ccc(F)cc2)c1=O [Compound 5],100 to 50000,100 to 50000,100 to 50000
Cn1cc(-c2oc3ncnc(Oc4ccc(NC(=O)c5ccc[nH]c5=O)cc4)c3c2-c2cccc(N)c2)cn1 [Compound 77],100 to 50000,100 to 50000,100 to 50000
CC(=O)Nc1cccc(-c2c(-c3cnn(C)c3)oc3ncnc(Oc4ccc(NC(=O)c5cc(-c6ccc(F)cc6)on5)cc4)c23)c1 [Compound 116],100 to 50000,100 to 50000,100 to 50000
CCNc1cccc(-c2c(-c3cnn(C)c3)oc3ncnc(Oc4ccc(NC(=O)c5cn(C)n(-c6ccc(F)cc6)c5=O)cc4)c23)c1 [Compound 178],< 20,100 to 50000,100 to 50000
CN(C)Cc1cccc(-c2c[nH]c3ncnc(Oc4ccc(NC(=O)c5cn(C)n(-c6ccc(F)cc6)c5=O)cc4)c23)c1 [Compound 134],100 to 50000,100 to 50000,100 to 50000
CC(=O)Nc1cccc(-c2c(-c3cnn(C)c3)oc3ncnc(Oc4ccc(NC(=O)c5cccn(C)c5=O)cc4)c23)c1 [Compound 75],100 to 50000,100 to 50000,100 to 50000
O=C(Nc1ccc(Oc2ncnc3[nH]c(-c4ccccc4)cc23)cc1)c1cccn(-c2ccc(F)cc2)c1=O [Compound 76],100 to 50000,100 to 50000,100 to 50000
CC(=O)Nc1cccc(-c2n[nH]c3ncnc(Oc4ccc(NC(=O)c5cccn(-c6ccc(F)cc6)c5=O)cc4)c23)c1 [Compound 35],20 to 100,100 to 50000,100 to 50000
CCOc1ccn(-c2ccc(F)cc2)c(=O)c1C(=O)Nc1ccc(Oc2ncnc3[nH]cc(-c4cccc(N)c4)c23)cc1 [Compound 1],< 20,20 to 100,20 to 100
COc1nn(-c2ccc(C)cc2)cc1C(=O)Nc1ccc(Oc2ncnc3oc(-c4cnn(C)c4)c(-c4cccc(N)c4)c23)cc1 [Compound 136],100 to 50000,100 to 50000,100 to 50000
Cc1cc(F)ccc1-n1cccc(C(=O)Nc2ccc(Oc3ncnc4oc(-c5cnn(C)c5)c(-c5cccc(CN(C)C)c5)c34)cc2)c1=O [Compound 98],< 20,20 to 100,20 to 100
Cn1cc(-c2oc3ncnc(Oc4ccc(NC(=O)c5cccn(-c6ccc(F)nc6)c5=O)cc4)c3c2-c2cccc(N)c2)cn1 [Compound 80],< 20,20 to 100,20 to 100
